Laboratory results from patent US12054498B2, “Heteroaromatic macrocyclic ether chemotherapeutic agents” (Nuvalent, Inc., priority 2020, dated 2024).
pIC50, pKi: −log10 of the molar value.

Tests used:
ALK L1196M/G1202R = target: T1, ALK L1196M/G1202R (Homo sapiens, UniProt Q9UM73, G1202R/L1196M); experiment: Biochemical kinase assay, ALK L1196M/G1202R kinase domain; details: apparent inhibitory constant, Morrison equation; ATP 2 mM in substrate solution; read-out: ALK-L1196M-G1202R Ki^app
T1 construct: purchased SignalChem A19-12NG
T1 sequence (Q9UM73 1116-1392 L1196M/G1202R limits assumed): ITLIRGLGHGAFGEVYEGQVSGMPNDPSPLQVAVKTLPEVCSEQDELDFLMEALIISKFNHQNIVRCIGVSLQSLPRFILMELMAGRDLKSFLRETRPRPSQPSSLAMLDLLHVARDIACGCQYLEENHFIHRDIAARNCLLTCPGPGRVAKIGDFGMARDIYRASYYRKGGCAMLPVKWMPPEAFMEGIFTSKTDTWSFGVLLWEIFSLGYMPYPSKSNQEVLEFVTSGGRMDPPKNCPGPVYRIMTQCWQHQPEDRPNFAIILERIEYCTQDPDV
Description: (§1) First, 250 nL of compound dissolved in DMSO (100-fold of the desired concentration) was dispensed into a 384-well plate. A 12.5 μL substrate solution containing ATP (2 mM) and fluorogenic phosphorylation substrate AQT0101 (26 μM for ALK and ROS1, AssayQuant) or AQT0104 (26 μM for TRKA, AssayQuant) in buffer (50 mM HEPES pH 7.5, 0.01% Brij-35, 0.5 mM EGTA, 10 mM MgCl2) was added and mixed thoroughly. Then, a 12.5 μL kinase solution containing ALK-wt (1.5 nM, Carna, 08-518), ALK ALK L1196M/G1202R (3 nM, SignalChem, A19-12NG), ROS1-wt (0.6 nM, Carna, 08-163), ROS1-G2032R (0.5 nM, SignalChem, R14-12BG), or TRKA-wt (1 nM, BPS Bio, 40280) kinase domains in buffer (50 nM HEPES pH 7.5, 0.01% Brij-35, 2% glycerol, 0.4 mg/mL BSA, 0.5 mM EGTA, and 10 mM MgCl2) was added and mixed thoroughly. The plate was sealed and read by SpectraMax Paradigm at λ=485 nm every 2 minutes for 120 minutes at 30° C. Initial rates of reaction (v) were calculated from the change in fluorescence intensity over time during the initial, linear portion of the reaction. Finally, apparent inhibitory constants (Ki^app) were determined from regression of v and I (inhibitor concentration) to Morrison Equation (E=enzyme concentration): […]

Ba/F3 cells TPM3-TRKA = target: T2, Ba/F3 cells TPM3-TRKA (Homo sapiens, UniProt P04629); experiment: Ba/F3 cell proliferation assay, TPM3-TRKA; format: cell-based; details: 72 hours, CellTiter-Glo, read-out: TPM3-NTRK1-wt IC50
T2 construct: host or cells: Ba/F3 (RIKEN), retroviral pMSCV-puro; the other entry of the earlier key: TPM3 (P06753, Tropomyosin alpha-3 chain)
T2 sequence (P04629 510-796 limits assumed): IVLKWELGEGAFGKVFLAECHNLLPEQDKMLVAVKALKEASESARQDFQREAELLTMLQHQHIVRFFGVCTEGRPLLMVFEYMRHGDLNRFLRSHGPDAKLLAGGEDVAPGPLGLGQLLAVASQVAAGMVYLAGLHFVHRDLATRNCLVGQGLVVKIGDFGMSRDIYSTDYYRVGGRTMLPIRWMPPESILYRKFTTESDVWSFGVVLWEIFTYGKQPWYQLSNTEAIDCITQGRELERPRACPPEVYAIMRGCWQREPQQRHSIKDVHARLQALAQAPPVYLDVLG
Description: (§2) Genes encoding CD74-ROS1 wild-type (wt), CD74-ROS1 G2032R, CD74-ROS1 S1986F, CD74-ROS1 L2026M, CD74-ROS1 D2033N, EML4-ALK wt (variant 1), EML4-ALK G1202R (variant 1), EML4-ALK L1196M/G1202R (variant 1), EML4-ALK G1202R/G1269A (variant 1), EML4-ALK G1202R/L1198F (variant 1), and TPM3-TRKA were synthesized at GeneRay, cloned into the retroviral construct pMSCV-puro (Biovector), and packaged into retroviral particles. The virus was used to infect Ba/F3 cells (RIKEN) at multiplicity of infection=1 for 1 day. Infected cells were rescued in media (RPMI-1640 with 10% fetal bovine serum and 1% streptomycin and penicillin) supplemented with mouse IL-3 (10 ng/mL) for 2 days, and stable cell lines were selected by IL-3 withdrawal and puromycin (0.8 μg/mL) for 7 days. Monoclones were selected by single-cell dilution in IL-3-free medium containing puromycin (0.8 μg/mL). Transformation of desired genes was confirmed by Sanger sequencing and western blot using the following antibodies: ROS1 (CST #3287), ALK (CST #3633), and pan-TRK (Abcam #76291).
(§3) Cell Proliferation Assay Stable cells were plated at 1,000 cells/well (40 μL) in a 384-well plate for 1 day.
(§4) Test compounds (40 nL) were then added in a 3-fold dilution series using the TECAN EVO200 liquid handler and incubated for 72 hours. Plates were equilibrated at room temperature for 15 minutes followed by addition of 40 μL CellTiter-Glo reagent (Promega).
(§5) Luminescence was measured on a plate reader. Half-maximal inhibitory concentration (IC50) was calculated from percent inhibition and inhibitor concentration using four-parameter logistic regression. […] (nd=not determined).

[1] = target: T3, Ba/F3 cells CD74-ROS1 G2032R (Homo sapiens, UniProt P08922, G2032R); experiment: Ba/F3 cell proliferation assay, CD74-ROS1 G2032R; format: cell-based; details: 72 hours, CellTiter-Glo
T3 construct: fusion of the C-terminus of ROS1 with the N-terminus of various partner proteins; host or cells: Ba/F3 (RIKEN), retroviral pMSCV-puro; the other entry of the earlier key: CD74 (P04233, HLA class II histocompatibility antigen gamma chain)
T3 sequence (P08922 1883-2347 G2032R limits assumed): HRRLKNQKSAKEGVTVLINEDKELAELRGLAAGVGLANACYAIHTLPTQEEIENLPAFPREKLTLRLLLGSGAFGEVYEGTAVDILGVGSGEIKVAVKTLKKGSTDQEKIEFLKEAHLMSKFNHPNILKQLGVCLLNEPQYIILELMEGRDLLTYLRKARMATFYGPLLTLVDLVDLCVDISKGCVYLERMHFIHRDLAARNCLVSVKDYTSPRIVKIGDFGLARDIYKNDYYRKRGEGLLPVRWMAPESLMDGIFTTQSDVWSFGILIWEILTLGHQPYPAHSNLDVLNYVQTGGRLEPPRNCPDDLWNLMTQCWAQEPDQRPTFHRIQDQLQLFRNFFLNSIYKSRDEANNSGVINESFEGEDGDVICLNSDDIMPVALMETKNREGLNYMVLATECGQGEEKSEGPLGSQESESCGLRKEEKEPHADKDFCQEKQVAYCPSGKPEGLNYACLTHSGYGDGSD
Description: (§6) The virus was used to infect Ba/F3 cells (RIKEN) at multiplicity of infection=1 for 1 day. Infected cells were rescued in media (RPMI-1640 with 10% fetal bovine serum and 1% streptomycin and penicillin) supplemented with mouse IL-3 (10 ng/mL) for 2 days, and stable cell lines were selected by IL-3 withdrawal and puromycin (0.8 μg/mL) for 7 days. Monoclones were selected by single-cell dilution in IL-3-free medium containing puromycin (0.8 μg/mL).
as §3, §4, §5

ROS1-wt = target: T4, ROS1-wt (Homo sapiens, UniProt P08922); experiment: Biochemical kinase assay, ROS1-wt kinase domain; details: apparent inhibitory constant, Morrison equation; ATP 2 mM in substrate solution; read-out: ROS1-wt Ki^app
T4 construct: purchased Carna 08-163
T4 sequence (P08922 1945-2222 limits assumed): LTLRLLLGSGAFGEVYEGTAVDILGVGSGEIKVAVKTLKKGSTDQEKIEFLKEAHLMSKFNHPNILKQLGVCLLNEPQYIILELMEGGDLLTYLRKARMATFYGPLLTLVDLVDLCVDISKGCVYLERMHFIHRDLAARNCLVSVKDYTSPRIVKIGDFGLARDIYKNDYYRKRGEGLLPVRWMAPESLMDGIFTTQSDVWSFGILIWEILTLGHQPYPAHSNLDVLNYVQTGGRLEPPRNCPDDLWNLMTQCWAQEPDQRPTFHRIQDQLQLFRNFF
Description: as §1, with “Then, a 12.5 μL kinase solution containing ALK-wt (1.5 nM, Carna, 08-518), ALK ALK L1196M/G1202R (3 nM, SignalChem, A19-12NG), ROS1-wt (0.6 nM, Carna, 08-163), ROS1-G2032R (0.5 nM, SignalChem, R14-12BG), or TRKA-wt (1 nM, BPS Bio, 40280) kinase domains in buffer (50 nM HEPES pH 7.5, 0.01% Brij-35, 2% glycerol, 0.4 mg/mL BSA, 0.5 mM EGTA, and 10 mM MgCl2) was added and mixed thoroughly.” left out

ALK-wt = target: T5, ALK-wt (Homo sapiens, UniProt Q9UM73); experiment: Biochemical kinase assay, ALK-wt kinase domain; details: apparent inhibitory constant, Morrison equation; ATP 2 mM in substrate solution; read-out: ALK-wt Ki^app
T5 construct: purchased Carna 08-518
T5 sequence (Q9UM73 1116-1392 limits assumed): as the sequence (Q9UM73 1116-1392 L1196M/G1202R limits assumed) above, with M81L, R87G counted along it
Description: as §1

[2] = target: T6, Ba/F3 cells EML4-ALK L1196M/G1202R (variant 1) (Homo sapiens, UniProt Q9UM73, G1202R/L1196M); experiment: Ba/F3 cell proliferation assay, EML4-ALK L1196M/G1202R (variant 1); format: cell-based; details: 72 hours, CellTiter-Glo
T6 construct: echinoderm microtubule-associated protein-like 4 (EML4) gene and the ALK tyrosine kinase domain; host or cells: Ba/F3 (RIKEN), retroviral pMSCV-puro; the other entry of the earlier key: EML4 (Q9HC35, Echinoderm microtubule-associated protein-like 4)
T6 sequence (Q9UM73 with tags, fused parts or gaps L1196M/G1202R): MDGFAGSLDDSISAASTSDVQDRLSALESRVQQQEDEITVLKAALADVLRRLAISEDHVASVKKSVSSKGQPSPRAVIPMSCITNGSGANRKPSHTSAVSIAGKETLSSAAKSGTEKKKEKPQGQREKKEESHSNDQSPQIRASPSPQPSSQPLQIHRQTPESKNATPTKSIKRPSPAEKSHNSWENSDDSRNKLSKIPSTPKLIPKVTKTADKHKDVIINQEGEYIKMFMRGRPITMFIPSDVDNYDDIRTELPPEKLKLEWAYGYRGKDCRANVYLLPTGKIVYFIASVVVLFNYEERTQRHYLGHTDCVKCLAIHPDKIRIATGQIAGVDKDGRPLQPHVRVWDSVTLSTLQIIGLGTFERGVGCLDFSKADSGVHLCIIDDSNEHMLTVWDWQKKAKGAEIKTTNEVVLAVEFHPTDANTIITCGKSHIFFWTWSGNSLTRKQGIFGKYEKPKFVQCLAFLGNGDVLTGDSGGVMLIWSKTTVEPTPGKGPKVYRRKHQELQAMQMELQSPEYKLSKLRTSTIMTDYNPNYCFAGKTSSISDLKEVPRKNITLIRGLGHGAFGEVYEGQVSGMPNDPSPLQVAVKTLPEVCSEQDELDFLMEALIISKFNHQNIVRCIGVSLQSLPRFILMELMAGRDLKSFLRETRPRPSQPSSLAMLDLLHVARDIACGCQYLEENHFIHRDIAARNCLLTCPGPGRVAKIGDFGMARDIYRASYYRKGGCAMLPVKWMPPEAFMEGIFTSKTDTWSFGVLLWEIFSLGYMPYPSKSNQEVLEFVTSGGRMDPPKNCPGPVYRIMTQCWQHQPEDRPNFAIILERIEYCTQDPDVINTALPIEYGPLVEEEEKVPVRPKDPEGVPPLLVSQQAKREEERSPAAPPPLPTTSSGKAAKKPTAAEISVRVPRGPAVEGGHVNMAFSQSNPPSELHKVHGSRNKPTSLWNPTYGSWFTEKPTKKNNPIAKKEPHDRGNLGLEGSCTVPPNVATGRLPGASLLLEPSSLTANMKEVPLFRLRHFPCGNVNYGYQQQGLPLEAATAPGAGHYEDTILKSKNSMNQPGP
Description: as §2, §3, §4, §5

[3] = tested on: TPM3-NTRK1-wt IC50 / primary target IC50 (e.g. CD74-ROS1-wt); experiment: TRKA selectivity in Ba/F3 cells (TRKA potency divided by primary target potency); format: cell-based; details: for TPM3-NTRK1-wt/CD74-ROS1-G2032R selectivity ratio: TRKA potency / CD74-ROS1-G2032R potency; for TPM3-NTRK1-wt/EML4-ALK-L1196M-G1202R selectivity ratio: TRKA potency / EML4-ALK-L1196M-G1202R potency; for TPM3-NTRK1-wt/CD74-ROS1-wt selectivity ratio: TRKA potency / CD74-ROS1-wt potency; for TPM3-NTRK1-wt/EML4-ALK-wt selectivity ratio: TRKA potency / EML4-ALK-wt potency
Description: TRKA selectivity was calculated by dividing a compound's TRKA potency by its primary target potency (e.g. TPM3-NTRK1-wt IC50/CD74-ROS1-wt IC50). Compound selectivity can be interpreted by binning ratio values: bin A for very high selectivity, ratio >30-fold; bin B for high selectivity, ratio >10-fold; bin C for moderate selectivity, ratio ≥1; and bin D for low selectivity, ratio <1. […] (nd=not determined).

ROS1-G2032R = target: T7, ROS1-G2032R (Homo sapiens, UniProt P08922, G2032R); experiment: Biochemical kinase assay, ROS1-G2032R kinase domain; details: apparent inhibitory constant, Morrison equation; ATP 2 mM in substrate solution; read-out: ROS1-G2032R Ki^app
T7 construct: purchased SignalChem R14-12BG
T7 sequence (P08922 1945-2222 G2032R limits assumed): as the sequence (P08922 1945-2222 limits assumed) above, with G88R counted along it
Description: as §1, with “Then, a 12.5 μL kinase solution containing ALK-wt (1.5 nM, Carna, 08-518), ALK ALK L1196M/G1202R (3 nM, SignalChem, A19-12NG), ROS1-wt (0.6 nM, Carna, 08-163), ROS1-G2032R (0.5 nM, SignalChem, R14-12BG), or TRKA-wt (1 nM, BPS Bio, 40280) kinase domains in buffer (50 nM HEPES pH 7.5, 0.01% Brij-35, 2% glycerol, 0.4 mg/mL BSA, 0.5 mM EGTA, and 10 mM MgCl2) was added and mixed thoroughly.” left out

TRKA-wt = target: T8, TRKA-wt (Homo sapiens, UniProt P04629); experiment: Biochemical kinase assay, TRKA-wt kinase domain; details: apparent inhibitory constant, Morrison equation; ATP 2 mM in substrate solution; read-out: TRKA-wt Ki^app
T8 construct: or TRKA-wt (1 nM, BPS Bio, 40280) kinase domains in buffer; purchased BPS Bio 40280
T8 sequence (P04629 510-781 limits assumed): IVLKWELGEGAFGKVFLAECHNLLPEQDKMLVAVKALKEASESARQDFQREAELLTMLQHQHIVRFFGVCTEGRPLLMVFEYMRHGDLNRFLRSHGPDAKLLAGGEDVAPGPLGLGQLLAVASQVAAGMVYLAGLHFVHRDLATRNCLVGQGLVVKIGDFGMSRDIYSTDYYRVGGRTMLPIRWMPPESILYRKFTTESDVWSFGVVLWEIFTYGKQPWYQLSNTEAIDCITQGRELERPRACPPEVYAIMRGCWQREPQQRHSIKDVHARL
Description: as §1

[4] = target: T9, Ba/F3 cells EML4-ALK wt (variant 1) (Homo sapiens, UniProt Q9UM73); experiment: Ba/F3 cell proliferation assay, EML4-ALK wt (variant 1); format: cell-based; details: 72 hours, CellTiter-Glo
T9 construct: echinoderm microtubule-associated protein-like 4 (EML4) gene and the ALK tyrosine kinase domain; host or cells: Ba/F3 (RIKEN), retroviral pMSCV-puro; the other entry of the earlier key: EML4 (Q9HC35, Echinoderm microtubule-associated protein-like 4)
T9 sequence (Q9UM73 with tags, fused parts or gaps): as the sequence (Q9UM73 with tags, fused parts or gaps L1196M/G1202R) above, with M635L, R641G counted along it
Description: as §2, §3, §4, §5

[5] = target: T10, Ba/F3 cells CD74-ROS1 wild-type (wt) (Homo sapiens, UniProt P08922); experiment: Ba/F3 cell proliferation assay, CD74-ROS1 wild-type; format: cell-based; details: 72 hours, CellTiter-Glo
T10 construct: fusion of the C-terminus of ROS1 with the N-terminus of various partner proteins; host or cells: Ba/F3 (RIKEN), retroviral pMSCV-puro; the other entry of the earlier key: CD74 (P04233, HLA class II histocompatibility antigen gamma chain)
T10 sequence (P08922 1883-2347 limits assumed): as the sequence (P08922 1883-2347 G2032R limits assumed) above, with R150G counted along it
Description: as §6, §3, §4, §5

SMILES	pKi (ALK L1196M/G1202R)	pIC50 (Ba/F3 cells TPM3-TRKA)	pIC50 [1]	pKi (ROS1-wt)	pKi (ALK-wt)	pIC50 [2]	TPM3-NTRK1-wt/CD74-ROS1-G2032R selectivity ratio [3]	TPM3-NTRK1-wt/EML4-ALK-L1196M-G1202R selectivity ratio [3]	pKi (ROS1-G2032R)	pKi (TRKA-wt)	pIC50 [4]	pIC50 [5]	TPM3-NTRK1-wt/CD74-ROS1-wt selectivity ratio [3]	TPM3-NTRK1-wt/EML4-ALK-wt selectivity ratio [3]
CCn1ncc2c1-c1cnc(N)c(c1)O[C@H](C)c1cc(F)ccc1-c1cnnn1C2 [Example 2, (19R)-3-ethyl-16-fluoro-19-methyl-20-oxa-3,4,8,9,10,23-hexaazapentacyclo[19.3.1.0^2,^6.0^8,^12.0^13,^18]pentacosa-1(24),2(6),4,9,11,13,15,17,21 (25),22-decaen-22-amine]	6.30 to 7.30	< 6.30	7.30 to 10.00	> 7.30	> 7.30	< 6.30	A (bin A for very high selectivity, ratio >30-fold)	C (bin C for moderate selectivity, ratio ≥1)	6.30 to 7.30	< 6.30	–	–	–	–
CCn1ncc2c1-c1cnc(N)c(c1)O[C@H](C)c1cc(F)ccc1-c1nn(C)nc1C2 [Example 5, (19R)-3-ethyl-16-fluoro-10,19-dimethyl-20-oxa-3,4,9,10,11,23-hexaazapentacyclo[19.3.1.0^2,^6.0^8,^12.0^13,^18]pentacosa-1(24),2(6),4.8,11,13,15,17,21(25),22-decaen-22-amine]	> 7.30	6.30 to 7.30	–	–	> 7.30	7.30 to 10.00	–	–	–	6.30 to 7.30	7.30 to 10.00	–	–	–
CCn1ncc2c1-c1cnc(N)c(c1)O[C@H](C)c1cc(F)ccc1-c1cc(OC)nn1C2 [Example 89, (19R)-3-ethyl-16-fluoro-10-methoxy-19-methyl-20-oxa-3,4,8,9,23-pentaazapentacyclo[19.3.1.0^2,^6.0^8,^12.0^13,^18]pentacosa 1(24),2(6),4,9,11,13,15,17,21(25),22-decaen-22-amine]	> 7.30	6.30 to 7.30	7.30 to 10.00	–	> 7.30	6.30 to 7.30	A (bin A for very high selectivity, ratio >30-fold)	D (bin D for low selectivity, ratio <1)	> 7.30	6.30 to 7.30	7.30 to 10.00	7.30 to 10.00	A (bin A for very high selectivity, ratio >30-fold)	B (bin B for high selectivity, ratio >10-fold)
Cc1nn(CC2CC2)c2c1Cc1nn(C)nc1-c1ccc(F)cc1[C@@H](CO)Oc1cc-2cnc1N [Example 96, [(19S)-22-amino-3-(cyclopropylmethyl)-16-fluoro-5,10-hexaazapentacyclo[19.3.1.0^2,^6.0^8,^12.0^13,^18]pentacosa-1(24),2(6),4,8,11,13,15,17,21(25),22-decaen-19-yl]methanol]	> 7.30	< 6.30	–	> 7.30	> 7.30	6.30 to 7.30	–	A (bin A for very high selectivity, ratio >30-fold)	> 7.30	< 6.30	–	–	–	–
CCn1ccc2c1-c1cnc(N)c(c1)O[C@H](C)c1cc(F)ccc1-c1nn(C)nc1C2 [Example 102, (19R)-3-ethyl-16-fluoro-10,19-dimethyl-20-oxa-3,9,10,11,23-pentaazapentacyclo[19.3.1.0^2,^6.0^8,^12.0^13,^18]pentacosa-1(24),2(6),4,8,11,13,15,17,21(25),22-decaen-22-amine]	–	< 6.30	6.30 to 7.30	–	–	< 6.30	B (bin B for high selectivity, ratio >10-fold)	C (bin C for moderate selectivity, ratio ≥1)	–	–	6.30 to 7.30	7.30 to 10.00	A (bin A for very high selectivity, ratio >30-fold)	B (bin B for high selectivity, ratio >10-fold)
